These results are taken from US20260226037A1, “MICROTUBULE TARGETING AGENTS” (ARIEL SCIENTIFIC INNOVATIONS LTD., priority 2022, published 2026).

The term IC50 denotes the concentration at which inhibition is half-maximal.

The subject of series [1] is NCI-H69 cells. Briefly: XTT cytotoxicity, NCI-H69. Type of series: cell-based. The settings on record: Homo sapiens; NCI-H69, small cell lung carcinoma, non-resistant. The protocol:
(§1) The cytotoxic activity of the novel family was evaluated against various tumor cells, including myeloma cells, acute lymphoblastic leukemia cells, acute monocytic leukemia cells, chronic myelogenous leukemia cells, pancreatic cancer cells, breast cancer cells, uterine sarcoma cells, cervix adenocarcinoma cells, ovary cancer cells, melanoma cells, osteosarcoma cells, prostate cancer cells, lung cancer cells, neuroblastoma cells and colorectal adenocarcinoma cells by XTT assay.
In general terms: Tetrazolium dyes change colour on reduction, which living cells bring about.

Series [2] has as its system myeloma cell lines. Briefly: XTT cytotoxicity, 10 different myeloma cell lines. It counts as cell-based. The note with it: range over 10 different myeloma cell lines. The method, then: as §1
When this family of compounds were tested on different cell lines from the same type of tumor with different phenotypes there were no significant differences in cytotoxic sensitivity.

The subject of series [3] is different cancer cell lines. The experiment in a line: XTT cytotoxicity, various tumor cells. It counts as cell-based. The note with it: XTT assay. The method, then: as §1
The subject of series [4] is MM1.S cells. The experiment in a line: XTT cytotoxicity, MM1.S. It counts as cell-based. The note with it: Homo sapiens, multiple myeloma, non-resistant, read-out: IC50. Summed up: (§2)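 Compounds were tested against cultured cancer cells of various origins, and cytotoxic activity was determined with the XTT method.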
The test system of series [5] is MCF7 cells. The experiment in a line: XTT cytotoxicity, MCF7. It counts as cell-based. The note with it: Homo sapiens; MCF7, breast adenocarcinoma, non-resistant. Summed up: as §2
Series [6] in a line: Xenograft murine myeloma model, body weight and toxicity signs. The settings on record: intraperitoneally, during the experiment. Type of series: in vivo. The method, then: In vivo anti-cancer efficacy of the molecules was evaluated in a xenograft murine myeloma model. Male SCID mice (6-8 weeks old) were maintained in accordance with Institutional Animal Care Use Committee guidelines. Mice were housed in the Animal Research Facility of Ariel University and experiments were performed in accordance with approved protocols. During the experiment, RPMI8226 myeloma cells in exponential growth were harvested from culture, washed three times with sterile PBS, counted and resuspended in sterile PBS (1.5×10^7cells mouse/0.1 ml PBS) and subcutaneously injected on the right flank of male C.B-17/IcrHsd-Prkdc-scid, […] mice. After two weeks of cells injection, when tumors reached a size between 30-60 mm3, mice were assigned into different groups (n=3-5) and started receiving treatment. Body weights were determined twice weekly along with tumor volume {V=[length×(width)2]/2}measurements using electronical caliper. Mice were sacrificed when mean tumor volume of vehicle treated group reached 1500 mm3, or mice appeared moribund to prevent unnecessary morbidity.
The weight of the tumors was measured at the end of the experiment and expressed as mean tumor weight per group. Body weight is expressed as mean body mice weight per group.

Series [7] concerns purified tubulin. The experiment in a line: Tubulin polymerization, cell-free assay. The settings on record: tubulin 2.00 mg/mL; 1, 15 and 30 μM; 37° C., 100 min; vs vehicle. It counts as biochemical. The protocol:
The effect of the compounds on their ability to inhibit tubulin polymerization, was tested against a vehicle control by evaluating polymerization of purified tubulin in a cell-free assay where tubulin (2.00 mg/mL) was exposed to vehicle control or 1, 15 and 30 μM of the compounds (n=2). Polymerizations were tracked by an increase in fluorescence excitation wavelength is 340-360 nm and emission wavelength at 410-460 nm. Fluorescence was monitored at 37° C. every 30 sec for 100 min.

Series [8] deals with acute lymphoblastic leukemia cells. The experiment in a line: XTT cytotoxicity, acute lymphoblastic leukemia cells. Type of series: cell-based. The note with it: lowest of the range. The method, then:
as §1

The test system of series [9] is A2780ADR cells. The experiment in a line: XTT cytotoxicity, A2780ADR. Type of series: cell-based. The protocol:
as §1

The subject of series [10] is MES-SA cells. The experiment in a line: XTT cytotoxicity, MES-SA. It counts as cell-based. The note with it: Homo sapiens, poorly differentiated uterine sarcoma, non-resistant. The method, boiled down:
as §2

The test system of series [11] is MESA/SA and MES-SA/DX5, NALM6 and NALM6/ADR, RPMI8226 and RPMI-DO40 cells. The experiment in a line: Annexin / propidium iodide staining (apoptosis, necrosis). It counts as cell-based. The settings on record: 72 hours, graded concentrations.

Each structure is given as a SMILES string. Entries after “also recorded” stand apart in the source; their conditions may differ.

For `CCCCCOC(=O)c1[nH]c2c(c1C)C(=O)CC(c1ncco1)C2` (stereo not shown) [SMS077, pentyl 3-methyl-6-(oxazol-2-yl)-4-oxo-4,5,6,7-tetrahydro-1H-indole-2-carboxylate], the IC50 in series [1] is 163 nM; in series [2], 14 to 52 nM; in [4], 33 nM; in [5] it was 380 nM; in series [8] it was 10 nM; in series [9] (A2780 ADR, A2780ADR, ovarian carcinoma, resistant), 31 nM. This compound also displayed an IC50 in series [10] of 128 nM. Moreover, the cytotoxic activity result in series [3] is reported as “very potent cytotoxic activity against different cancer cell lines at low nanomolar levels”. Further, the “body weight and other signs of potential toxicity” value in series [6] is “No significant changes in body weight or other signs of potential toxicity”. Besides, the “rate of tubulin polymerization” value in series [7] is listed as “inhibited the rate of tubulin polymerization in a concentration-dependent manner”. Besides, the “IC50 ratio between resistant and non-resistant cells” value in series [9] (A2780ADR / A2780) was determined as 1.938. In addition, the “resistance of cells to treatment” value in series [9] (A2780ADR ovary carcinoma cells) is on record as “resistant to vincristine but not to SMS077 treatment”. In addition, in [11], the “apoptosis and necrosis (annexin, propidium iodide staining)” value was “induced apoptosis and necrosis; also recorded: induces apoptosis and necrosis of treated cells”.
